Data set [1] can be described thus: mortality rate by supposed ingested dose in colchicine overdose. Format: in vivo, human. How it is done: Although the dose ingested has an influence on the clinical picture, it is not, by itself, enough to allow prediction of the death of the patient. Indeed, the mortality rate in the three groups of supposed ingested dose equal to or less than 0.35 mg/kg, >0.35—equal or less than 0.7, and >0.7 were 0 (0%), 6/33 (18%), and 12/36 (33%) (Fisher's exact test: p<0.0001). The relation of mortality rate to the dose is statistically highly significant albeit being weak. Therefore, from a clinical viewpoint, other parameters reflecting the effects of the dose should be considered to define the likelihood of death in colchicine overdose.

For data set [2] the following is noted: cited from earlier work.

SMILES strings stand for the structures.

This is an account of results in patent US20220003751A1, “METHOD FOR […] OF COLCHICINE-I[…]” (ASSISTANCE PUBLIQUE - HÔPITAUX DE PARIS, priority 2019, published 2022).

`COc1cc2c(c(OC)c1OC)-c1ccc(OC)c(=O)cc1[C@@H](NC(C)=O)CC2` [colchicine, Colchicine]: the mortality rate in data set [1] (supposed ingested dose >0.7 mg/kg, 12/36) is 33%; in data set [1] (supposed ingested dose >0.35 to equal or less than 0.7 mg/kg, 6/33), 18%; in data set [1] (supposed ingested dose equal to or less than 0.35 mg/kg), 0%. Besides, the “acute dose presumed to be fatal” value in data set [2] was “about 0.8 mg/kg”.
